Experimental data reported in PMC5218480 (PLoS ONE, 2017).

Tested on: MV-4-11 cells
Experiment: Gene expression microarray analysis (Affymetrix PrimeView) and GSEA
Assay type: cell-based, human
Design: RFU PODN (11730768_x_at) / Fold change /veh PODN (11730768_x_at) / RFU LINC00158 (11744669_a_at) / Fold change /veh LINC00158 (11744669_a_at) / RFU DUSP10 (11751237_a_at) / Fold change /veh DUSP10 (11751237_a_at) / RFU ID3 (11757404_x_at) / Fold change /veh ID3 (11757404_x_at) / RFU PLEKHG5 (11737974_s_at) / Fold change /veh PLEKHG5 (11737974_s_at) / RFU LRRC4B (11730491_at) / Fold change /veh LRRC4B (11730491_at) / RFU GIMAP4 (11747438_a_at) / Fold change /veh GIMAP4 (11747438_a_at) / RFU KRT8 (11758183_x_at) / Fold change /veh KRT8 (11758183_x_at) / RFU CNN1 (11734310_a_at) / Fold change /veh CNN1 (11734310_a_at) / RFU VPS37D (11726825_at) / Fold change /veh VPS37D (11726825_at) / RFU C10orf10 (11716522_x_at) / Fold change /veh C10orf10 (11716522_x_at) / RFU KIR2DL2 /// KIR2DL4 /// KIR2DL5A /// KIR2DL5B /// KIR2DS1 /// KIR2DS2 /// KIR2DS3 /// KIR2DS4 /// KIR3DL3 /// KIR3DL3 /// KIR3DS1 (11738374_at) / Fold change /veh KIR2DL2 /// KIR2DL4 /// KIR2DL5A /// KIR2DL5B /// KIR2DS1 /// KIR2DS2 /// KIR2DS3 /// KIR2DS4 /// KIR3DL3 /// KIR3DL3 /// KIR3DS1 (11738374_at) / RFU C1QL1 (11718748_at) / Fold change /veh C1QL1 (11718748_at) / RFU TMPRSS4 (11747572_a_at) / Fold change /veh TMPRSS4 (11747572_a_at) / RFU HAMP (11756126_x_at) / Fold change /veh HAMP (11756126_x_at) / RFU RNFT2 (11725882_a_at) / Fold change /veh RNFT2 (11725882_a_at) / RFU NR4A2 (11747474_a_at) / Fold change /veh NR4A2 (11747474_a_at) / RFU ABCC12 (11746883_a_at) / Fold change /veh ABCC12 (11746883_a_at) / RFU TMEM136 (11760407_x_at) / Fold change /veh TMEM136 (11760407_x_at) / RFU CLDN22 /// WWC2 (11732394_at) / Fold change /veh CLDN22 /// WWC2 (11732394_at) / RFU HLA-DPB1 (11760878_x_at) / Fold change /veh HLA-DPB1 (11760878_x_at) / RFU SPINT1 (11716480_a_at) / Fold change /veh SPINT1 (11716480_a_at) / RFU GAP43 (11754022_s_at) / Fold change /veh GAP43 (11754022_s_at) / RFU A4GNT (11735810_at) / Fold change /veh A4GNT (11735810_at) / RFU PRB3 (11715151_x_at) / Fold change /veh PRB3 (11715151_x_at) / RFU TUBB4B (11761932_at) / Fold change /veh TUBB4B (11761932_at) / RFU CAPN14 (11732068_a_at) / Fold change /veh CAPN14 (11732068_a_at) / RFU TMCC2 (11721928_a_at) / Fold change /veh TMCC2 (11721928_a_at) / RFU IRGQ (11745062_a_at) / Fold change /veh IRGQ (11745062_a_at) / RFU FAM174B (11720279_a_at) / Fold change /veh FAM174B (11720279_a_at) / RFU TMPRSS4 (11748680_a_at) / Fold change /veh TMPRSS4 (11748680_a_at) / RFU FAM212B (11763350_a_at) / Fold change /veh FAM212B (11763350_a_at) / RFU PLEKHG5 (11743358_a_at) / Fold change /veh PLEKHG5 (11743358_a_at) / RFU ZSCAN30 (11745921_a_at) / Fold change /veh ZSCAN30 (11745921_a_at) / RFU CMKLR1 (11741424_a_at) / Fold change /veh CMKLR1 (11741424_a_at) / RFU LOC101060620 /// MAPK8IP1 (11723275_at) / Fold change /veh LOC101060620 /// MAPK8IP1 (11723275_at) / RFU SPTSSB (11747773_x_at) / Fold change /veh SPTSSB (11747773_x_at) / RFU PRSS12 (11739890_at) / Fold change /veh PRSS12 (11739890_at) / RFU BIN1 (11741810_x_at) / Fold change /veh BIN1 (11741810_x_at) / RFU WNT11 (11732464_a_at) / Fold change /veh WNT11 (11732464_a_at) / RFU C10orf10 (11716521_a_at) / Fold change /veh C10orf10 (11716521_a_at) / RFU C5orf56 (11738089_at) / Fold change /veh C5orf56 (11738089_at) / RFU CYB561 (11721691_x_at) / Fold change /veh CYB561 (11721691_x_at) / RFU ANKRD19P (11752326_a_at) / Fold change /veh ANKRD19P (11752326_a_at) / RFU OR2T12 /// OR2T33 /// OR2T8 (11738714_s_at) / Fold change /veh OR2T12 /// OR2T33 /// OR2T8 (11738714_s_at) / RFU VCAN (11748164_a_at) / Fold change /veh VCAN (11748164_a_at) / RFU JSRP1 (11732532_at) / Fold change /veh JSRP1 (11732532_at) / RFU KRTAP10-11 (11738290_x_at) / Fold change /veh KRTAP10-11 (11738290_x_at) / RFU MYO3A (11730013_a_at) / Fold change /veh MYO3A (11730013_a_at) / RFU EBF3 (11725865_a_at) / Fold change /veh EBF3 (11725865_a_at) / RFU CAMK2N1 (11719241_x_at) / Fold change /veh CAMK2N1 (11719241_x_at) / RFU C5orf56 (11738088_a_at) / Fold change /veh C5orf56 (11738088_a_at) / RFU OLFML3 (11715873_a_at) / Fold change /veh OLFML3 (11715873_a_at) / RFU LOC100653217 /// NTM (11731650_a_at) / Fold change /veh LOC100653217 /// NTM (11731650_a_at) / RFU MAPK11 (11762145_a_at) / Fold change /veh MAPK11 (11762145_a_at) / RFU FIZ1 (11724087_x_at) / Fold change /veh FIZ1 (11724087_x_at) / RFU OASL (11726364_x_at) / Fold change /veh OASL (11726364_x_at) / RFU SOX15 (11748057_x_at) / Fold change /veh SOX15 (11748057_x_at) / RFU CD79A (11719716_a_at) / Fold change /veh CD79A (11719716_a_at) / RFU HIST1H1D (11736915_at) / Fold change /veh HIST1H1D (11736915_at) / RFU CASKIN2 (11723855_a_at) / Fold change /veh CASKIN2 (11723855_a_at) / RFU LOC730098 (11760151_x_at) / Fold change /veh LOC730098 (11760151_x_at) / RFU OR4N2 (11742367_at) / Fold change /veh OR4N2 (11742367_at) / RFU PRRT2 (11749266_a_at) / Fold change /veh PRRT2 (11749266_a_at) / RFU SNX32 (11753110_a_at) / Fold change /veh SNX32 (11753110_a_at) / RFU CDHR5 (11726645_a_at) / Fold change /veh CDHR5 (11726645_a_at) / RFU RCAN1 (11760418_a_at) / Fold change /veh RCAN1 (11760418_a_at) / RFU FAM167A (11723789_a_at) / Fold change /veh FAM167A (11723789_a_at) / RFU FAM26E (11764081_at) / Fold change /veh FAM26E (11764081_at) / RFU ISYNA1 (11749810_s_at) / Fold change /veh ISYNA1 (11749810_s_at) / RFU ACY1 (11761880_at) / Fold change /veh ACY1 (11761880_at) / RFU 11764098_at / Fold change /veh 11764098_at / RFU SAMD14 (11745864_x_at) / Fold change /veh SAMD14 (11745864_x_at) / RFU NPB (11741838_a_at) / Fold change /veh NPB (11741838_a_at) / RFU TMPRSS6 (11731388_a_at) / Fold change /veh TMPRSS6 (11731388_a_at) / RFU KRTAP10-2 (11738614_at) / Fold change /veh KRTAP10-2 (11738614_at) / RFU ARHGAP8 /// PRR5-ARHGAP8 (11727945_x_at) / Fold change /veh ARHGAP8 /// PRR5-ARHGAP8 (11727945_x_at) / RFU KRTAP5-7 /// NADSYN1 (11734609_at) / Fold change /veh KRTAP5-7 /// NADSYN1 (11734609_at) / RFU RASL12 (11751679_a_at) / Fold change /veh RASL12 (11751679_a_at) / RFU CDKN2B (11736163_a_at) / Fold change /veh CDKN2B (11736163_a_at) / RFU PRF1 (11729649_at) / Fold change /veh PRF1 (11729649_at) / RFU, ZNF638 /// ZNF638-IT1 / Fold change vs veh, ZNF638 /// ZNF638-IT1 / RFU, PANK3 / Fold change vs veh, PANK3 / RFU, SH3YL1 / Fold change vs veh, SH3YL1 / RFU, ZEB2 / Fold change vs veh, ZEB2 / RFU, NRIP1 / Fold change vs veh, NRIP1 / RFU, PTTG1IP / Fold change vs veh, PTTG1IP / RFU, CAPN2 / Fold change vs veh, CAPN2 / RFU, MED14 / Fold change vs veh, MED14 / RFU, SNORA58 / Fold change vs veh, SNORA58 / RFU, C1orf63 / Fold change vs veh, C1orf63 / RFU, LRRFIP1 / Fold change vs veh, LRRFIP1 / RFU, NDUFAF7 / Fold change vs veh, NDUFAF7 / RFU, SLC12A2 / Fold change vs veh, SLC12A2 / RFU, IBTK / Fold change vs veh, IBTK / RFU, ESF1 / Fold change vs veh, ESF1 / Fold change vs veh, TMEM50B / RFU, TAOK1 / Fold change vs veh, TAOK1 / RFU, ACBD3 / Fold change vs veh, ACBD3 / RFU, TMA16 / Fold change vs veh, TMA16 / RFU, RWDD3 / Fold change vs veh, RWDD3 / RFU, BCAT1 / Fold change vs veh, BCAT1 / RFU, EDEM3 / Fold change vs veh, EDEM3 / RFU, TMEM33 / Fold change vs veh, TMEM33 / RFU, WDR75 / Fold change vs veh, WDR75 / RFU, AHCTF1 / Fold change vs veh, AHCTF1 / RFU, TFRC / Fold change vs veh, TFRC / RFU, ZDHHC17 / Fold change vs veh, ZDHHC17 / RFU, NOM1 / Fold change vs veh, NOM1 / RFU, ARL8B / Fold change vs veh, ARL8B / RFU, ZBTB11 / Fold change vs veh, ZBTB11 / RFU, TAMM41 / Fold change vs veh, TAMM41 / RFU, KIAA1704 /// LOC100996395 / Fold change vs veh, KIAA1704 /// LOC100996395 / RFU, ING1 / Fold change vs veh, ING1 / RFU, TRMT61B / Fold change vs veh, TRMT61B / RFU, FUBP3 / Fold change vs veh, FUBP3 / RFU, TP53 / Fold change vs veh, TP53 / RFU, TNKS2 / Fold change vs veh, TNKS2 / RFU, ZFP14 / Fold change vs veh, ZFP14 / RFU, ACTR2 / Fold change vs veh, ACTR2 / RFU, PPP3R1 / Fold change vs veh, PPP3R1 / RFU, PIK3R1 / Fold change vs veh, PIK3R1 / RFU, HNRNPA1 / Fold change vs veh, HNRNPA1 / RFU, RNF170 / Fold change vs veh, RNF170 / RFU, ZNF28 / Fold change vs veh, ZNF28 / RFU, RNGTT / Fold change vs veh, RNGTT / RFU, OGT / Fold change vs veh, OGT / RFU, BRD1 / Fold change vs veh, BRD1 / RFU, MARS / Fold change vs veh, MARS / RFU, ZNF655 / Fold change vs veh, ZNF655 / RFU, FAHD1 / Fold change vs veh, FAHD1 / RFU, BDP1 / Fold change vs veh, BDP1 / RFU, LRRCC1 / Fold change vs veh, LRRCC1 / RFU, ARID1A / Fold change vs veh, ARID1A / RFU, ZNF146 / Fold change vs veh, ZNF146 / RFU, ZNF330 / Fold change vs veh, ZNF330 / RFU, GPN3 / Fold change vs veh, GPN3 / RFU, C9orf123 / Fold change vs veh, C9orf123 / RFU, N4BP2L2 / Fold change vs veh, N4BP2L2 / RFU, ARFIP1 / Fold change vs veh, ARFIP1 / RFU, FAM179B / Fold change vs veh, FAM179B / RFU, BCL10 / Fold change vs veh, BCL10 / RFU, UHRF1BP1L / Fold change vs veh, UHRF1BP1L / RFU, BET1 / Fold change vs veh, BET1 / RFU, CNOT2 / Fold change vs veh, CNOT2 / RFU, ZNF268 / Fold change vs veh, ZNF268 / Fold change vs veh, ZNF507 / RFU, DGCR2 / Fold change vs veh, DGCR2 / RFU, WDSUB1 / Fold change vs veh, WDSUB1 / Fold change vs veh, HSP90B1 /// MIR3652 / RFU, ADSS / Fold change vs veh, ADSS / RFU, GK / Fold change vs veh, GK / RFU, ZNF148 / Fold change vs veh, ZNF148 / RFU, TAF9 / Fold change vs veh, TAF9 / RFU, SLC1A5 / Fold change vs veh, SLC1A5 / RFU, SLMO2 / Fold change vs veh, SLMO2 / RFU, ABCC4 / Fold change vs veh, ABCC4 / RFU, LOC101060439 /// RAP1B / Fold change vs veh, LOC101060439 /// RAP1B / RFU, RFX7 / Fold change vs veh, RFX7 / RFU, GTPBP10 / Fold change vs veh, GTPBP10 / RFU, CNEP1R1 / Fold change vs veh, CNEP1R1 / RFU, BIVM-ERCC5 /// ERCC5 / Fold change vs veh, BIVM-ERCC5 /// ERCC5 / RFU, ILF3 / Fold change vs veh, ILF3 / RFU 11762660_at / Fold change /veh 11762660_at / RFU VCAN (11757783_s_at) / Fold change /veh VCAN (11757783_s_at) / RFU DDX43 (11728927_at) / Fold change /veh DDX43 (11728927_at) / RFU KRT8 (11758188_x_at) / Fold change /veh KRT8 (11758188_x_at) / RFU NKD1 (11759106_at) / Fold change /veh NKD1 (11759106_at) / RFU SRD5A1 (11742802_a_at) / Fold change /veh SRD5A1 (11742802_a_at) / RFU TPSAB1 /// TPSB2 (11721975_s_at) / Fold change /veh TPSAB1 /// TPSB2 (11721975_s_at) / RFU GSTM3 (11746129_a_at) / Fold change /veh GSTM3 (11746129_a_at) / RFU IL23R (11737362_x_at) / Fold change /veh IL23R (11737362_x_at) / RFU TMEM51 (11727254_a_at) / Fold change /veh TMEM51 (11727254_a_at) / RFU PIWIL2 (11732686_x_at) / Fold change /veh PIWIL2 (11732686_x_at) / RFU ORM1 (11744905_x_at) / Fold change /veh ORM1 (11744905_x_at) / RFU CCDC152 (11743942_at) / Fold change /veh CCDC152 (11743942_at) / RFU ECM1 (11717891_a_at) / Fold change /veh ECM1 (11717891_a_at) / RFU IL23R (11748794_a_at) / Fold change /veh IL23R (11748794_a_at) / RFU TNFAIP8L3 (11732012_x_at) / Fold change /veh TNFAIP8L3 (11732012_x_at) / RFU MBOAT4 (11741988_at) / Fold change /veh MBOAT4 (11741988_at) / RFU 11764193_at / Fold change /veh 11764193_at / RFU TMEM53 (11763286_at) / Fold change /veh TMEM53 (11763286_at) / RFU MAGEB2 (11727129_at) / Fold change /veh MAGEB2 (11727129_at) / RFU TMEM200A (11744735_a_at) / Fold change /veh TMEM200A (11744735_a_at) / RFU CCDC152 (11751479_a_at) / Fold change /veh CCDC152 (11751479_a_at) / RFU FAM211A (11726209_a_at) / Fold change /veh FAM211A (11726209_a_at) / RFU RGS16 (11746705_a_at) / Fold change /veh RGS16 (11746705_a_at) / RFU VCAN (11755009_s_at) / Fold change /veh VCAN (11755009_s_at) / RFU RHOB (11743442_s_at) / Fold change /veh RHOB (11743442_s_at) / RFU RGS16 (11720943_a_at) / Fold change /veh RGS16 (11720943_a_at) / RFU RGS16 (11720944_at) / Fold change /veh RGS16 (11720944_at) / RFU, VPS4B / Fold change vs veh, VPS4B / RFU, CREB1 / Fold change vs veh, CREB1 / RFU, DNAJC13 / Fold change vs veh, DNAJC13 / RFU, GNAQ / Fold change vs veh, GNAQ / RFU, CDK5R1 / Fold change vs veh, CDK5R1 / RFU, ZRANB3 / Fold change vs veh, ZRANB3 / RFU, CUL4A / Fold change vs veh, CUL4A / RFU, CCNY / Fold change vs veh, CCNY / RFU, UFL1 / Fold change vs veh, UFL1 / RFU, COG3 / Fold change vs veh, COG3 / RFU, DIAPH2 / Fold change vs veh, DIAPH2 / RFU, SKA2 / Fold change vs veh, SKA2 / RFU, AFF3 / Fold change vs veh, AFF3 / RFU, LMF1 / Fold change vs veh, LMF1 / RFU, IPO11 / Fold change vs veh, IPO11 / RFU, DFFB / Fold change vs veh, DFFB / RFU, FOXP1 / Fold change vs veh, FOXP1 / RFU, CARD8 / Fold change vs veh, CARD8 / RFU, STRN3 / Fold change vs veh, STRN3 / RFU, ADK / Fold change vs veh, ADK / RFU, RASSF2 / Fold change vs veh, RASSF2 / RFU, WIPF1 / Fold change vs veh, WIPF1 / RFU, LARP1B / Fold change vs veh, LARP1B / RFU, RASA1 / Fold change vs veh, RASA1 / RFU, RB1 / Fold change vs veh, RB1 / RFU, PPFIA1 / Fold change vs veh, PPFIA1 / RFU, MAT2A / Fold change vs veh, MAT2A / RFU, CCT5 / Fold change vs veh, CCT5 / RFU, WDR92 / Fold change vs veh, WDR92 / RFU, CUX1 / Fold change vs veh, CUX1 / RFU, TTC7A / Fold change vs veh, TTC7A / RFU, TMEM135 / Fold change vs veh, TMEM135 / RFU, DEPTOR / Fold change vs veh, DEPTOR / RFU, CPM / Fold change vs veh, CPM / RFU, DNAJB6 / Fold change vs veh, DNAJB6 / RFU, CACNA2D3 / Fold change vs veh, CACNA2D3 / RFU, DTX4 / Fold change vs veh, DTX4 / RFU, TFCP2 / Fold change vs veh, TFCP2 / RFU, GMCL1 /// GMCL1P1 / Fold change vs veh, GMCL1 /// GMCL1P1 / RFU, AEBP2 / Fold change vs veh, AEBP2 / RFU, SNHG1 /// SNORD22 /// SNORD25 /// SNORD26 /// SNORD27 /// SNORD28 /// SNORD29 /// SNORD31 / Fold change vs veh, SNHG1 /// SNORD22 /// SNORD25 /// SNORD26 /// SNORD27 /// SNORD28 /// SNORD29 /// SNORD31 / Fold change (Aza/veh), C12orf56 (ProbeSet 11735607_a_at) / Fold change (ACY-1035/veh), C12orf56 (ProbeSet 11735607_a_at) / Fold change (Aza/veh), FGFR1OP (ProbeSet 11751329_s_at) / Fold change (ACY-1035/veh), FGFR1OP (ProbeSet 11751329_s_at) / Fold change (Aza/veh), VPS36 (ProbeSet 11739960_a_at) / Fold change (ACY-1035/veh), VPS36 (ProbeSet 11739960_a_at) / RFU SYPL1 (11715823_x_at) / Fold change /veh SYPL1 (11715823_x_at) / RFU IGFBP7 (11715501_s_at) / Fold change /veh IGFBP7 (11715501_s_at) / RFU REEP3 (11722064_at) / Fold change /veh REEP3 (11722064_at) / RFU IGLL1 (11728026_x_at) / Fold change /veh IGLL1 (11728026_x_at): dose or concentration left out as unconfirmed
Conditions: MV-4-11 cells, 48 hours

## Nc1ncn([C@@H]2O[C@H](CO)[C@@H](O)[C@H]2O)c(=O)n1 [azacitidine]
  Fold change /veh VPS37D (11726825_at): 1.12
